Experiments:
Format in all cases: biochemical
[1] = target: T1, MAGL (Homo sapiens, UniProt Q99685); test: In vitro competitive activity-based protein profiling (FP-Rh or HT-01 probe, gel-based); design: IC50 MGLL PC3 (Human, μM) / IC50 MGLL PFC (Human, μM): scale not given here; conditions: for % Inh MGLL PC3 (Human, μM) / IC50 MGLL PC3 (Human, μM): PC3 cell proteome; for % Inh MGLL PC3 (Human, μM) / % Inh MGLL PFC (Human, μM): concentration not given (μM)
T1 construct: Proteomes (human prefrontal cortex or cell membrane fractions); from tissue
T1 sequence (Q99685 1-303): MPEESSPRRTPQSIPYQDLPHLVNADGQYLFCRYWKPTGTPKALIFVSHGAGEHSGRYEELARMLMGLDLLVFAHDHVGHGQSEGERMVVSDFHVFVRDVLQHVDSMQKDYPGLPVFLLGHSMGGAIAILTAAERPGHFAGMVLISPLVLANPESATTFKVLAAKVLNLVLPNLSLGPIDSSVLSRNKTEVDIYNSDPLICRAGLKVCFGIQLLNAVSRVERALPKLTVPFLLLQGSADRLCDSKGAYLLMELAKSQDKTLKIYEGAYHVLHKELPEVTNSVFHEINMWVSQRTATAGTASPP
Procedure: (§1) In Vitro Competitive Activity-Based Protein Profiling.
(§2) Proteomes (human prefrontal cortex or cell membrane fractions) (50 μL, 1.0 mg/mL total protein concentration) were preincubated with varying concentrations of inhibitors at 37° C. After 30 min, FP-Rh or HT-01 (1.0 μL, 50 μM in DMSO) was added and the mixture was incubated for another 30 min at room temperature. Reactions were quenched with SDS loading buffer (15 μL-4×) and run on SDS-PAGE.

[2] = target: T2, ABHD6 (Mus musculus, UniProt Q8R2Y0); test: In vitro competitive activity-based protein profiling, mouse brain proteome (ABHD6); conditions: mouse brain proteome; concentration not given (μM)
T2 construct: Brain; from tissue; host or cells: mouse brain proteome
T2 sequence (Q8R2Y0 1-336): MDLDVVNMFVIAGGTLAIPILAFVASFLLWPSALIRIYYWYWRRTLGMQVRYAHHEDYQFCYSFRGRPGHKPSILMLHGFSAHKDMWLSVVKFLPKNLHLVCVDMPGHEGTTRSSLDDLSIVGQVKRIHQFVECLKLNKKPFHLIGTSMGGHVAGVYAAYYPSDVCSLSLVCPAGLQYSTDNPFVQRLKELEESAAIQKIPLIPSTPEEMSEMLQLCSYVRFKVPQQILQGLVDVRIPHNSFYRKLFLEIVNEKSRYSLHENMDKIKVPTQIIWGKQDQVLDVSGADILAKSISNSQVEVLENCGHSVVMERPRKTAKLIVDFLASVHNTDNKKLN
Procedure: [The source words this procedure for another target and reports this target under the same test.] as §1, §2

[3] = target: T3, MGLL (Mus musculus, UniProt O35678); test: In vitro competitive activity-based protein profiling, mouse brain proteome (MGLL); design: IC50 MGLL Brain (Mouse, μM): scale not given here; conditions: for % Inh MGLL Brain (Mouse, μM): concentration not given (μM)
T3 construct: Brain; from tissue; host or cells: mouse brain proteome
T3 sequence (O35678 1-303): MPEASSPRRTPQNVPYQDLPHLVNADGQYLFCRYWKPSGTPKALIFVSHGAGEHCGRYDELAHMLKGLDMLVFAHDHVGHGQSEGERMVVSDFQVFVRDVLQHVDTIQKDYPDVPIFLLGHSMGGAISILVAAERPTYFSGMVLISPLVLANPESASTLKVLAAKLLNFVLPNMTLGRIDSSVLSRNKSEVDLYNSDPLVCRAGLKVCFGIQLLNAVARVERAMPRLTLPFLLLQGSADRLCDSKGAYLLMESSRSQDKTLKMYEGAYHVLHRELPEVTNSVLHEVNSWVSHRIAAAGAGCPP

[4] = prefrontal cortex (PFC) proteome

Structure (SMILES)	% Inh ABHD6 Brain (Mouse, μM) [2]	% Inh MGLL Brain (Mouse, μM) [3]	also measured
CN(Cc1cccc(F)c1C1(C(=O)O)CCCC1)C1(C)CCN(C(=O)OC(C(F)(F)F)C(F)(F)F)CC1 [Example 144, l-(2-Fluoro-6-{[(1-{[(1.1,1,3,3,3-hexafluoropropan-2-yl)oxy]carbonyl}-4-methylpiperidin-4-yl)(methyl)ainino]methyl}phenyl)cyclopentane-1-carboxylic acid]	# (# is ≤25%)	### (### is ≥75%)	% Inh MGLL PC3 (Human, μM) [1]: ### (### is ≥75%)
O=C(O)[C@H]1CCCN(c2cc(CN3CC4(CCN(C(=O)OC(C(F)(F)F)C(F)(F)F)CC4)C3)cc(C(F)(F)F)c2)C1 [Example 106, (S)-1-(3-((7-(((1,1,1,3,3,3-Hexafluoropropan-2-yl)oxy)carbonyl)-2,7-diazaspiro[3,5]nonan-2-yl)methyl)-5-(trifluoromelhyl)phenyl) piperidine-3-carboxylic acid]	### (### is ≥75%)	### (### is ≥75%)	% Inh MGLL PFC (Human, μM) [1, 4]: ### (### is ≥75%)
O=C(OC(C(F)(F)F)C(F)(F)F)N1CCC2(CCCN2Cc2cc(F)cc(C3(C(=O)O)CCCC3)c2)CC1 [Example 4, 1-(3-Fluoro-5-((8-(((1,1,1,3,3,3-hexafluoropropan-2-yl)oxy)carbonyl)-1,8-diazaspiro[4.5]decan-1-yl)methyl)phenyl)cyclopentane-1-carboxylic acid]	# (# is ≤25%)	### (### is ≥75%)	IC50 MGLL PC3 (Human, μM) [1]: * * *; % Inh MGLL PC3 (Human, μM) [1]: ### (### is ≥75%)
CC1(N(CC(=O)O)Cc2ccc(C(F)(F)F)cc2N2CCOCC2)CCN(C(=O)OC(C(F)(F)F)C(F)(F)F)CC1 [Example 124, N-(1-(((1,1,1,3,3,3-Hexafluoropropan-2-yl)oxy)cart>onyl)-4-methylpiperidin-4-yl)-N-(2-morpholino-4-(trifluoromethyl)benzyl) glycine]	# (# is ≤25%)	### (### is ≥75%)	% Inh MGLL PFC (Human, μM) [1, 4]: ### (### is ≥75%)
O=C(O)C1CCN(Cc2cc(C(F)(F)F)ccc2C(=O)N2CCCC23CCN(C(=O)OC(C(F)(F)F)C(F)(F)F)CC3)CC1 [Example 10, 1-(2-(8-(((1,1,1,3,3,3-Hexafluoropropan-2-yl)oxy)carbonyl)-1,8-diazaspiro[4.5]decane-1-carbonyl)-5-(trifluoromethyl)benzyl)piperidine-4-carboxylic acid]	# (# is ≤25%)	### (### is ≥75%)	% Inh MGLL PC3 (Human, μM) [1]: ### (### is ≥75%)
CN(Cc1ccc(C(F)(F)F)cc1N1CCC(C(=O)O)C1)C1(C)CCN(C(=O)OC(C(F)(F)F)C(F)(F)F)CC1 (stereo not drawn) [Example 118, l-(2-(((1-(((1,1,1,3,3,3-Hexailuoropropan-2-yl)oxy)carbonyl)-4-methylpiperidin-4-yl)(methyl)amino)methyl)-5-(trifluoromethyl)phenyl)pyrrolidine-3-carboxylic acid]	## (## is between 25 and 75%)		% Inh MGLL PFC (Human, μM) [1, 4]: ### (### is ≥75%)
O=C(O)CN1CC2CC1CN2c1cc(C(F)(F)F)ccc1CN1CCCC12CCN(C(=O)OC(C(F)(F)F)C(F)(F)F)CC2 (stereo not drawn) [Example 6]			IC50 MGLL PC3 (Human, μM) [1]: * * *; IC50 MGLL PFC (Human, μM) [1, 4]: * * *
O=C(OC(C(F)(F)F)C(F)(F)F)N1CCC2(CC1)CN(Cc1ccc(N3CCCC3)cc1)C2 [Example 80, 1,1,1,3,3,3-Hexafluoropropan-2-yl 2-(4-(pyrrolidin-1-yl)benzyl)-2,7-diazaspiro[3.5]nonane-7-carboxylate]	# (# is ≤25%)	### (### is ≥75%)	
O=C(OC(C(F)(F)F)C(F)(F)F)N1CCC2(CCN(Cc3ccc(Cl)cc3N3CCC(F)CC3)CC2)C1 [Example 28, 1,1,1,3,3,3-Hexafluoropropan-2-yl 8-(4-chloro-2-(4-fluoropiperidin-1-yl)benzyl)-2,8-diazaspiro[4.5]decane-2-carboxylate]	# (# is ≤25%)	### (### is ≥75%)	IC50 MGLL Brain (Mouse, μM) [3]: * * *
CC(=O)N1CCC2(CCN(c3cc(C(F)(F)F)ccc3CN3CCN(C(=O)OC(C(F)(F)F)C(F)(F)F)CC3)CC2)C1 [Example 189, 1,1,1,3,3,3-Hexafluoropropan-2-yl 4-(2-(2-acetyl-2,8-diazaspiro[4.5]decan-8-yl)-4-(trifliioromethyl)benzyl) piperazine-1-carboxylate]	# (# is ≤25%)	### (### is ≥75%)	
O=C(O)C1CCN(c2cc(Cl)ccc2CN2CCC3(CC2)CCN(C(=O)OC(C(F)(F)F)C(F)(F)F)C3)CC1 [Example 194, l-(5-Chloro-2-((2-(((1.1,1,3,3,3-hexafluoropropan-2-yl)oxy)carbonyl)-2,8-diazaspiro[4.5]decan-8-yl)methyl)phenyI)piperidine-4-carboxylic acid]	# (# is ≤25%)	### (### is ≥75%)	
CC(=O)N1CC2(CCN(c3ccccc3CN3CCCC34CN(C(=O)OC(C(F)(F)F)C(F)(F)F)C4)C2)C1 [Example 230, 1,1,1,3,3,3-Hexafluoropropan-2-yl 5-(2-(2-acetyl-2,6-diazaspiro[3,4]octan-6-yl)benzyl)-2,5-diazaspiro[3.4]octane-2-carboxylate]	# (# is ≤25%)	## (## is between 25 and 75%)	
CC(=O)N1CCN(c2cccc(Cl)c2CN2CC3(CCN(C(=O)OC(C(F)(F)F)C(F)(F)F)CC3)C2)CC1 [Example 49, 1,1,1,3,3,3-Hexafluoropropan-2-yl 2-(2-(4-acetylpiperazin-1-yl)-6-chlorobenzyl)-2,7-diazaspiro[3.5]nonane-7-carboxylate]	### (### is ≥75%)	### (### is ≥75%)	
CS(=O)(=O)N1CCC2(CCN(c3cc(C(F)(F)F)ccc3CN3CCC4(CCN(C(=O)OC(C(F)(F)F)C(F)(F)F)C4)C3)CC2)C1 (stereo not drawn) [Example 242, 1,1,1,3,3,3-Hexafluoropropan-2-yl 7-(2-(2-(methylsulfonyl)-2,8-diazaspiro[4.5]decan-8-yl)-4-(trifluoromethyl)benzyl)-2,7-diazaspiro[4.4]nonane-2-carboxylate]	## (## is between 25 and 75%)	### (### is ≥75%)	
CS(=O)(=O)N1CCC2(CCN(c3cccc(Cl)c3CN3CC4(CCN(C(=O)OC(C(F)(F)F)C(F)(F)F)CC4)C3)CC2)C1 [Example 61, 1,1,1,3,3,3-Hexafluoropropan-2-yl 2-(2-chloro-6-(2-(methylsulfonyl)-2,8-diazaspiro[4.5]decan-8-yl)benzyl)-2,7-diazaspiro[3.5]nonane-7-carboxylate]	### (### is ≥75%)	### (### is ≥75%)	
CS(=O)(=O)N1CC2(CCN(c3ccccc3CN3CCN(C(=O)OC(C(F)(F)F)C(F)(F)F)CC3)C2)C1 [Example 167, 1,1,1,3,3,3-Hexafluoropropan-2-yl 4-(2-(2-(methylsulfonyl)-2,6-diazaspiro[3,4]octan-6-yl)benzyl)piperazine-1-carboxylate]	# (# is ≤25%)	### (### is ≥75%)	

Source: US11161856B2 (H. Lundbeck A/S, priority 2017, dated 2021)
